The record followed here is patent EP0845034B1, “PEPTIDE HAVING PRONOCICEPTIVE PROPERTIES” (Euroscreen S.A., priority 1995, dated 1997).

For test [1], the system named is mice. Description: antagonism of nociceptin-induced stimulation of horizontal locomotor activity. Type of test: in vivo.
Test [2] has as its system mice. Conditions: mouse, in vivo.

Counter-ions that a name gives are not always drawn.

`O=C(CCCN1CCC(O)(c2ccc(Cl)cc2)CC1)c1ccc(F)cc1` [haloperidol]: the “effect on nociceptin-induced stimulation of locomotor activity” value in the test on mice [1] (increasing doses of D2 dopamine receptor antagonist pretreatment) was “antagonized”.
Regarding `CN1CC[C@]23c4c5ccc(O)c4O[C@H]2[C@@H](O)C=C[C@H]3[C@H]1C5` [morphin], the “number of explored holes” value with mice [2] was 24 ± 2.
In the case of `C=CCN1CC[C@]23c4c5ccc(O)c4O[C@H]2C(=O)CC[C@@]3(O)[C@H]1C5` [Naloxone, Naloxone hydrochloride], the “effect on motor-stimulant effect of nociceptin” value with mice [1] (0.0-4.5 mg/kg s.c., 10 minutes before i.c.v. 100 ng nociceptin, first 10 minutes of testing) is given as “did not suppress”.
